System: NCI-H295R
Test: IC50 (antiproliferative, ATP content)
Settings: 48 h
Method in brief: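 Serum-free ITS-supplemented DMEM was used to seed 1500 adrenocortical carcinoma cells per well in 1536-well plates, which were cultured overnight. Eight final concentrations of each library compound, from 0.6 nM to 46 µM, were added by pin transfer, followed by 48 h at 37 °C in 5% CO2 and a CellTiter-Glo ATP read after 20 min at room temperature. Luminescence was set against vehicle and positive-control wells, and the IC50 was obtained by logistic curve fitting. Any compound with no concentration response was entered as above the top dose.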

Structure (SMILES) | IC50
CC[C@H]1OC(=O)[C@H](C)[C@@H](O[C@H]2C[C@@](C)(OC)[C@@H](O)[C@H](C)O2)[C@H](C)[C@@H](O[C@@H]2O[C@H](C)C[C@H](N(C)C)[C@H]2O)[C@](C)(O)C[C@@H](C)C(=NOCOCCOC)[C@H](C)[C@@H](O)[C@]1(C)O | > 46 µM
O[C@](CN2N=CN=C2)([C@H]([C@@]3=C(F)C=NC=N3)C)C1=CC=C(F)C=C1F | > 46 µM
CC[N+](CC)(CC)CC.[Cl-] | > 46 µM
N=C(N)NN.N=C(N)NN.O=S(=O)(O)O | > 46 µM
CC(=O)OCC(=O)[C@@]12OC3(CCCC3)O[C@@H]1C[C@H]1C3CCC4=CC(=O)C=C[C@]4(C)[C@@]3(F)[C@@H](O)C[C@@]12C (some centres not stated) | > 46 µM
O=C(CCl)c1ccc(Oc2ccc(C(=O)CCl)cc2)cc1 | > 46 µM
CC(C)(Sc1cc(C(C)(C)C)c(O)c(C(C)(C)C)c1)Sc1cc(C(C)(C)C)c(O)c(C(C)(C)C)c1 | > 46 µM
O[C@H]1[C@](CC2)(C)[C@@](C)(C)[C@@H]2C1 | > 46 µM
OC[C@@H](O)[C@@H](O[C@@H]1O[C@H](CO)[C@H](O)[C@H](O)[C@H]1O)[C@H](O)[C@@H](O)CO | > 46 µM
O=C1c2ccccc2S(=O)(=O)N1CCCCN1CCN(c2ncccn2)CC1 | > 46 µM
Cc1ncsc1CCCl | > 46 µM
Cl.O=C(COc1ccc(Cl)cc1)N1CCN(Cc2ccc3c(c2)OCO3)CC1 | > 46 µM
CCOC(=O)c1c(N)sc2c1CCN(Cc1ccccc1)C2.Cl | > 46 µM
CCCn1cnc2c1c(=O)n(CCCCC(C)=O)c(=O)n2C | > 46 µM
Cc1cccc(C)c1NC(=O)CN1CCN(CCCC(c2ccc(F)cc2)c2ccc(F)cc2)CC1 | > 46 µM
F[C@]2([C@](C)3CC4)[C@@H](O)C[C@]1(C)[C@@](OC(C)=O)([C@@](C)=O)CC[C@]([H])1[C@@]([H])2CCC3=CC4=O | > 46 µM
c1ccc2sc(SNC3CCCCC3)nc2c1 | > 46 µM
Cn1c(CCCC(=O)O)nc2cc(N(CCCl)CCCl)ccc21 | > 46 µM
C[NH+](C)CCC(c1ccccc1)c1cccc[nH+]1.O=C([O-])/C=C\C(=O)[O-] (configuration not stated) | > 46 µM

Structure (SMILES) | IC50
ClC(Cl)Cl | > 46 µM
Cc1ccc(-c2ncc(Cl)cc2-c2ccc(S(C)(=O)=O)cc2)cn1 | > 46 µM
CCC(C)(C)C(=O)O[C@H]1C[C@@H](C)C=C2C=C[C@H](C)[C@H](CC[C@@H]3C[C@@H](O)CC(=O)O3)[C@H]21 | > 46 µM
CCCCC[C@@H](O)C1C(=O)OC(C)C(O)/C=C/C=C/C=C/C=C/C=C(\C)C(O)C(O)C(O)C[C@H](O)C[C@H](O)C[C@H](O)C[C@H](O)C[C@@H]1O (some centres not stated) | > 46 µM
O=C1[C@@](CC2)(C)[C@@](C)(C)[C@H]2C1 | > 46 µM
Nc1cccc2c1CN(C1CCC(=O)NC1=O)C2=O (configuration not stated) | > 46 µM
CN(C)C(Cc1ccccc1)c1ccccc1 (configuration not stated) | > 46 µM
Cc1ccccn1 | > 46 µM
O=[N+]([O-])/N=C1\NCCN1Cc1ccc(Cl)nc1 | > 46 µM
Nc1nc(NC2CC2)c2ncn([C@@H]3C=C[C@@H](CO)C3)c2n1 | > 46 µM
COc1cc(C(=O)N2CCCCCCC2)cc(OC)c1OC | > 46 µM
COc1c(O[C@@H]2O[C@H](CO)[C@@H](O)[C@H](O)[C@H]2O)cc2c(c1OC)-c1ccc(SC)c(=O)cc1[C@@H](NC(C)=O)CC2 | > 46 µM
COc1cc2c(cc1OC)[C@@H](c1ccccc1)CN(C)CC2.O=C(O)/C=C\C(=O)O | > 46 µM
CCOc1ccc2c3c1O[C@H]1[C@@H](O)C=C[C@H]4[C@@H](C2)N(C)CC[C@@]341 | > 46 µM
F[C@]1([C@](C[C@@H]4F)([H])[C@@]3([H])[C@]([C@@]([C@H](C)C3)(O)[C@@](CO)=O)(C)C[C@@H]1O)[C@](C=C2Cl)(C)C4=CC2=O.O | > 46 µM
C[N+](C)(C)CC(=O)O.[Cl-] | > 46 µM
CCC1(c2ccccc2)C(=O)NC(=O)N(C(=O)c2ccccc2)C1=O (configuration not stated) | > 46 µM
O=C2O[C@H](C)C/C=C/C=C/C=C/C=C/[C@H](O[C@@H]3O[C@H](C)[C@@H](O)[C@H](N)[C@@H]3O)C[C@]([C@H]([C@@](O)=O)[C@@H](O)C4)([H])O[C@]4(O)C[C@@H](O)C[C@@]1([H])O[C@@]([H])1/C=C/2 | > 46 µM
Cc1cc2c(OCC(CNC(C)(C)C)OC(=O)c3ccccc3)cccc2[nH]1 (configuration not stated) | > 46 µM

Structure (SMILES) | IC50
COc1ccc(/C=C/C(=O)O)cc1 | > 46 µM
CNc1ccc(C(=O)CC(O)CCC(C)C2OC(=O)CC(O)CC(=O)CC(O)CC(O)CC(O)CC(O)CC3(O)CC(O)C(C(=O)OC)C(CC(O[C@@H]4O[C@H](C)[C@@H](O)[C@H](N)[C@@H]4O)/C=C/C=C/C=C/C=C/C=C/C=C/C=C/C2C)O3)cc1 (some centres not stated) | > 46 µM
O[C@@H]1CC[C@@H](/C=C(C)/[C@H]([C@H](C)[C@@H](O)CC4=O)O[C@@]([C@H]2N(C(C([C@]3(O)O[C@H]([C@H](C[C@H](C/C(C)=C/[C@H]4CC=C)C)OC)[C@@H](OC)C[C@H]3C)=O)=O)CCCC2)=O)C[C@H]1OC | > 46 µM
CC(=O)OC[C@H]1O[C@@](COC(C)=O)(O[C@H]2O[C@H](COC(C)=O)[C@@H](OC(C)=O)[C@H](OC(C)=O)[C@H]2OC(C)=O)[C@@H](OC(C)=O)[C@@H]1OC(C)=O | > 46 µM
CN(C)CC/C=C1\c2ccccc2COc2ccccc21.Cl | > 46 µM
C=CC(C)(O)CC/C=C(\C)CCC=C(C)C (configuration not stated) | > 46 µM
CCNCC(O)c1cccc(O)c1.Cl (configuration not stated) | > 46 µM
C/14=C(/C[C@H]([C@H]2[C@H]3[C@](CC[C@H]\12)([C@@](C#C)(O)CC3)C)C)CC(CC4)=O | > 46 µM
COc1ccc2cc1Oc1cc3c(cc1OC)CC[N+](C)(C)[C@H]3Cc1ccc(cc1)Oc1c(OC)c(OC)cc3c1[C@@H](C2)[N+](C)(C)CC3.[I-].[I-] | > 46 µM
O=C1CC[C@@]2(O)[C@H]3Cc4ccc(O)c5c4[C@@]2(CCN3CC2CC2)[C@H]1O5 | > 46 µM
O=C(O)c1ccccc1O.Oc1cccc2cccnc12 | > 46 µM
O=C(CCCN1CCN(c2ccccn2)CC1)c1ccc(F)cc1 | > 46 µM
CCCC(=O)O[C@]1(C(=O)COC(C)=O)CC[C@H]2[C@@H]3C[C@H](F)C4=CC(=O)C=C[C@]4(C)[C@@]3(F)[C@@H](O)C[C@@]21C | > 46 µM
Oc1cccc(O)c1 | > 46 µM
C[C@H]1COc2c(C3(N)CC3)c(F)cc3c(=O)c(C(=O)O)cn1c23 | > 46 µM
Cc1nc(C)c(Cl)c(O)c1Cl | > 46 µM
CN1CC(=O)N2[C@H](c3ccc4c(c3)OCO4)c3[nH]c4ccccc4c3C[C@@H]2C1=O | > 46 µM
CC(=O)[C@@]3(O)CC[C@H]4[C@@H]5/C=C(/Cl)\C2=C\C(=O)[C@@H]1C[C@@H]1[C@]2(C)[C@H]5CC[C@]34C | > 46 µM
O=C(C)O[C@@](CC3)([C@](C)=O)[C@]2(C)[C@]3([H])[C@]1([H])C=C(C)C([C@@](CC4)(C)[C@]([H])1CC2)=CC4=O | > 46 µM

Results, then the compound that gave them:

IC50 | Structure (SMILES)
> 46 µM | [C@]43(\C(=C2\C(c1c(O)cccc1[C@](C2C[C@H]3[C@@H](/C(=C(\C4=O)C(NCN5CCCC5)=O)O)N(C)C)(O)C)=O)O)O (some centres not stated)
> 46 µM | CCN(CC)C(=O)c1ccc(O)c(OC)c1
> 46 µM | CCOC(=O)OC(C)OC1=C(C(=O)Nc2ccccn2)N(C)S(=O)(=O)c2ccccc21 (configuration not stated)
> 46 µM | C[C@H](N)C(=O)N[C@@H](C)P(=O)(O)O
> 46 µM | O=C(O)Cc1cccc2ccccc12
> 46 µM | O=P(O)(O)C(O)(Cn1ccnc1)P(=O)(O)O
> 46 µM | CCOC(=O)c1ncn2c1CN(C)C(=O)c1cc(F)ccc1-2
> 46 µM | CS(=O)(=O)c1ccc([C@@H](O)[C@@H](COC(=O)CN)NC(=O)C(Cl)Cl)cc1.Cl
> 46 µM | CCOC(=O)n1ccn(C)c1=S
> 46 µM | COC(=O)[C@@H](N)CS.Cl
> 46 µM | CC(=O)N[C@@H](CCC(=O)O)C(=O)O
> 46 µM | OC[C@@H](O)[C@@H](O)[C@@H](CO)O
> 46 µM | CC(=O)Oc1cccc2c1C(=O)c1c(OC(C)=O)cc(C(=O)O)cc1C2=O
> 46 µM | COc1ccc(C(=O)CC(=O)c2ccc(C(C)(C)C)cc2)cc1
> 46 µM | CC1(C)O[C@@H]2C[C@H]3[C@@H]4CCC5=CC(=O)C=C[C@]5(C)[C@H]4[C@@H](O)C[C@]3(C)[C@]2(C(=O)CO)O1
> 46 µM | CC(C)(C)NCC(O)c1ccc(O)c(CO)c1 (configuration not stated)
> 46 µM | CC[C@H](NC(C)C)[C@H](O)c1ccc(O)c2[nH]c(=O)ccc12
> 46 µM | O=C1C(O)=C(O)C(=O)C(O)=C1O
> 46 µM | CC(C)(CO)[C@@H](O)C(=O)NCCCC(=O)[O-].CC(C)(CO)[C@@H](O)C(=O)NCCCC(=O)[O-].[Ca+2]
> 46 µM | CC(=O)OCC(=O)[C@@]1(O)CC[C@H]2[C@@H]3CCC4=CC(=O)CC[C@]4(C)C3=CC[C@@]21C
> 46 µM | CC(=O)N(CC(O)CO)c1c(I)c(C(=O)NCC(O)CO)c(I)c(C(=O)NCC(O)CO)c1I (configuration not stated)
> 46 µM | [C@@]2\1(\C(=C/C(/C=C/1)=O)[C@H](C[C@@H]4[C@@H]2[C@H](C[C@@]3([C@](C(=O)CO)(O)CC[C@H]34)C)O)C)C
> 46 µM | O=C1O[C@H]([C@@H](O)CO)C(O)=C1O
> 46 µM | COC(=O)CCC[N+](C)(C)C.[Cl-]
> 46 µM | CC(C(=O)O)c1ccc(CC2CCCC2=O)cc1 (configuration not stated)
> 46 µM | CCCNC(C)C(=O)Nc1ccccc1C.Cl (configuration not stated)
> 46 µM | OC(=O)[C@@H](C(C)C)N(Cc1ccc(cc1)c2ccccc2C\3=N\N=N/N/3)C(=O)CCCC
> 46 µM | CCOC(=O)C1=C(C)NC(C)=C(C(=O)OC)C1c1cccc([N+](=O)[O-])c1 (configuration not stated)
> 46 µM | CN1CCCN=C1COC(=O)C(O)(c1ccccc1)C1CCCCC1.Cl (configuration not stated)
> 46 µM | CO/N=C(/C(=O)N[C@@H]1C(=O)N2C(C(=O)[O-])=C(COC(C)=O)CS[C@H]12)c1csc(N)n1.[Na+]

Reference: the supplement of paper PMC3493320
